Values of other authors, collected in US5419315A, “Intrapulmonary delivery of hormones” (Aradigm Corporation, priority 1994, dated 1995).
Where two headings read alike, the source gives them in different places.

Bioavailability (%) (in vivo)	bioavailability when administered intranasally (in vivo)	Compound	Bioavailability (%) (intranasal (nasal delivery))
2	–	CC(C)C[C@H](NC(=O)[C@@H](Cc1ccc2ccccc2c1)NC(=O)[C@H](Cc1ccc(O)cc1)NC(=O)[C@H](CO)NC(=O)[C@H](Cc1c[nH]c2ccccc12)NC(=O)[C@H](Cc1c[nH]cn1)NC(=O)[C@@H]1CCC(=O)N1)C(=O)N[C@@H](CCCNC(=N)N)C(=O)N1CCC[C@H]1C(=O)NCC(N)=O [Nafarelin]	–
–	–	Calcitonin	< 1
< 10	relatively low	CCNC(=O)[C@@H]1CCCN1C(=O)[C@H](CCCNC(=N)N)NC(=O)[C@H](CC(C)C)NC(=O)[C@@H](CC(C)C)NC(=O)[C@H](Cc1ccc(O)cc1)NC(=O)[C@H](CO)NC(=O)[C@H](Cc1c[nH]c2ccccc12)NC(=O)[C@H](Cc1c[nH]cn1)NC(=O)[C@@H]1CCC(=O)N1 [Leuprolide]	–
–	–	Glucagon	< 1
–	–	C[C@H](N)C(=O)NCC(=O)N[C@H]1CSSC[C@@H](C(=O)O)NC(=O)[C@H](CO)NC(=O)[C@H]([C@@H](C)O)NC(=O)[C@H](Cc2ccccc2)NC(=O)[C@H]([C@@H](C)O)NC(=O)[C@H](CCCCN)NC(=O)[C@H](Cc2c[nH]c3ccccc23)NC(=O)[C@H](Cc2ccccc2)NC(=O)[C@H](Cc2ccccc2)NC(=O)[C@H](CC(N)=O)NC(=O)[C@H](CCCCN)NC1=O [Somatostatin]	75
10	–	NC(=O)CC[C@@H]1NC(=O)[C@H](Cc2ccccc2)NC(=O)[C@H](Cc2ccc(O)cc2)NC(=O)CCSSC[C@@H](C(=O)N2CCC[C@H]2C(=O)N[C@H](CCCN=C(N)N)C(=O)NCC(N)=O)NC(=O)[C@H](CC(N)=O)NC1=O [Desmopressin]	–
–	–	CC[C@H](C)[C@@H]1NC(=O)[C@H](Cc2ccc(O)cc2)NC(=O)[C@@H](N)CSSC[C@@H](C(=O)N2CCC[C@H]2C(=O)N[C@@H](CC(C)C)C(=O)NCC(N)=O)NC(=O)[C@H](CC(N)=O)NC(=O)[C@H](CCC(N)=O)NC1=O [Oxytocin]	1
–	–	GHRH (YADAIFTNSYRKVLGQLSARKLLQDIMSRQQGESNQERGA; Somatoliberin; UniProt P01286 32-71, looked up, fragment)	< 1
–	–	Growth hormone	< 1

Compound	Bioavailability (%) (in vivo)	bioavailability when administered intranasally (in vivo)	Bioavailability (%) (intranasal (nasal delivery))
LHRH	1.5	–	–
Secretin	10	–	–
